A value given as a limit tells only on which side of the number the result lay.

One test deals with Dengue-2 (Strain New Guinea C). Put plainly: Dengue-2 viral yield assay in Vero cells. It is filed as cell-based. The following applies: Dengue virus, Vero, 48 h, read-out: Activity (anti-dengue 2 viral activity, EC50). On the procedure: Compounds that were active in the primary screen were tested for activity in viral yield assays. […] Vero cells in 12-well plates were infected with dengue-2 virus at a multiplicity of infection (MOI) of 0.1, treated with compound (or DMSO as a control), incubated at 37° C., harvested 48 hours post infection and titered on Vero cells as described above. The EC50 was calculated through ExcelFit. Those compounds with activity below 1 μM are indicated with “A”, those with activity between 1 and 10 μM are indicated with “B”, and those with activity between 10 and 25 μM with “C”.
As usually defined, the EC50 is the midpoint of the concentration-response curve. For the molecule `O=C(CSc1nnc(CSc2nc3ccccc3s2)o1)NC1CCCCC1` [Compound 53, 2-[5-(Benzothiazol-2-ylsulfanylmethyl)-[1,3,4]oxadiazol-2-ylsulfanyl]-N-cyclohexyl-acetamide], the EC50 was greater than 25 µM.
The same measure, in the same setting: to `CCC(=O)Nc1ccc2nc(SCC(=O)N3CCN(c4ccccc4)CC3)sc2c1` [Compound 54, N-{2-[2-oxo-2-(4-phenyl-piperazin-1-yl)-ethylsulfanyl]-benzothiazol-6-yl}-propionamide] belongs greater than 25 µM; to `CC1CCN(C(=O)CSc2nc3ccccc3[nH]2)CC1` [Compound 44, 2-(1H-Benzoimidazol-2-ylsulfanyl)-1-(4-methyl-piperidin-1-yl)-ethanone], greater than 25 µM.
As to `NC(=O)C1CCN(C(=O)CSc2nc3ccccc3[nH]2)CC1` [Compound 68, 1-[2-(1H-Benzoimidazol-2-ylsulfanyl)-acetyl]-piperidine-4-carboxylic acid amide], the EC50 was greater than 25 µM.
The same measure, in the same setting: to `O=C(Nc1ccc2nc(SCC(=O)N3CCOCC3)sc2c1)c1ccc(Cl)cc1Cl` [Compound 6, 2,4-Dichloro-N-[2-(2-morpholin-4-yl-2-oxo-ethylsulfanyl)-benzothiazol-6-yl]-benzamide] belongs 1 to 10 µM; to `NC(=O)C1CCN(C(=O)CSc2nc3ccccc3s2)CC1` [Compound 66, 1-[2-(Benzothiazol-2-ylsulfanyl)-acetyl]-piperidine-4-carboxylic acid amide], greater than 25 µM; to `Cc1cccc(C(=O)Nc2ccc3nc(SCC(=O)N4CCOCC4)sc3c2)c1` [Compound 13, 3-Methyl-N-[2-(2-morpholin-4-yl-2-oxo-ethylsulfanyl)-benzothiazol-6-yl]-benzamide], 10 to 25 µM.
On the same count and under the same terms, to `CCn1c(SCC(=O)N2CCC(C(N)=O)(N3CCCCC3)CC2)nnc1-c1ccccc1` [Compound 69, 1′-[2-(4-Ethyl-5-phenyl-4H-[1,2,4]triazol-3-ylsulfanyl)-acetyl]-[1,4′]bipiperidinyl-4′-carboxylic acid amide] belongs greater than 25 µM; to `O=C(O)c1ccc2oc(SCC(=O)N3CCCCC3)nc2c1` [Compound 48, 2-(2-oxo-2-piperidin-1-yl-ethylsulfanyl)-benzooxazole-5-carboxylic acid], greater than 25 µM; to `O=C(CSc1nc2cc(Cl)ccc2o1)N1CCOCC1` [Compound 74, 2-(5-Chloro-benzooxazol-2-ylsulfanyl)-1-morpholin-4-yl-ethanone], greater than 25 µM.

Staying with this test, now noted: Dengue virus; Dengue-2 strain New Guinea C, Vero cells, MOI 0.1, harvested 48 hours post infection, viral yield; read-out: Activity (anti-dengue 2 viral activity, EC50).
As for `O=C(CSc1nc2ccccc2o1)N1CCc2ccccc2C1` [Compound 47, 2-(Benzooxazol-2-ylsulfanyl)-1-(3,4-dihydro-1H-isoquinolin-2-yl)-ethanone], the EC50 was greater than 25 µM.
The same measure, in the same setting: the same measure for `CCN(CC)C(=O)CSc1nc2ccc(N3C(=O)c4ccccc4C3=O)cc2s1` [Compound 30, 2-[6-(1,3-Dioxo-1,3-dihydro-isoindol-2-yl)-benzothiazol-2-ylsulfanyl]-N,N-diethyl-acetamide]: greater than 25 µM; for `O=C(CSc1nc2ccccc2s1)N1CCCC1` [Compound 63, 2-(Benzothiazol-2-ylsulfanyl)-1-pyrrolidin-1-yl-ethanone]: greater than 25 µM; for `O=C(CSc1nc2ccc(/N=C/c3c(Cl)cccc3Cl)cc2s1)N1CCOCC1` [Compound 24, 2-(6-{[1-(2,6-Dichloro-phenyl)-meth-(E)-ylidene]-amino}-benzothiazol-2-ylsulfanyl)-1-morpholin-4-yl-ethanone]: greater than 25 µM.
Same read-out and setting: to `NC(=O)C1CCN(C(=O)CSc2nc3ccccc3o2)CC1` [Compound 67, 1-[2-(Benzooxazol-2-ylsulfanyl)-acetyl]-piperidine-4-carboxylic acid amide] belongs greater than 25 µM; to `O=C(CSc1nc2ccccc2s1)Nc1ccc2nc(SCC(=O)N3CCOCC3)sc2c1` [Compound 34, 2-(Benzothiazol-2-ylsulfanyl)-N-[2-(2-morpholin-4-yl-2-oxo-ethylsulfanyl)-benzothiazol-6-yl]-acetamide], greater than 25 µM.
For `O=C(CSc1nc2ccccc2[nH]1)N1CCc2ccccc2C1` [Compound 61, 2-(1H-Benzoimidazol-2-ylsulfanyl)-1-(3,4-dihydro-1H-isoquinolin-2-yl)-ethanone], the EC50 is greater than 25 µM.
In the case of `Nc1ccc2nc(SCC(=O)Nc3ccc4nc(SCC(=O)N5CCOCC5)sc4c3)sc2c1` [Compound 31, 2-(6-Amino-benzothiazol-2-ylsulfanyl)-N-[2-(2-morpholin-4-yl-2-oxo-ethylsulfanyl)-benzothiazol-6-yl]-acetamide], the EC50 is greater than 25 µM.
Same read-out and setting: the same measure for `Cc1ccccc1C(=O)Nc1ccc2nc(SCC(=O)N3CCOCC3)sc2c1` [Compound 5, 2-Methyl-N-[2-(2-morpholin-4-yl-2-oxo-ethylsulfanyl)-benzothiazol-6-yl]-benzamide]: 1 to 10 µM; for `CCN(CC)C(=O)CSc1nc2ccccc2n1C(=O)NC1CCCCC1` [Compound 15, 2-Diethylcarbamoylmethylsulfanyl-benzoimidazole-1-carboxylic acid cyclohexylamide]: greater than 25 µM.
Still for that read-out and setting: to `Cn1ccnc1SCC(=O)Nc1ccc2nc(SCC(=O)N3CCOCC3)sc2c1` [Compound 33, 2-(1-Methyl-1H-imidazol-2-ylsulfanyl)-N-[2-(2-morpholin-4-yl-2-oxo-ethylsulfanyl)-benzothiazol-6-yl]-acetamide] belongs greater than 25 µM; to `CCN(CC)C(=O)CSc1nc2cc(C)ccc2[nH]1` [Compound 62, N,N-Diethyl-2-(5-methyl-1H-benzoimidazol-2-ylsulfanyl)-acetamide], greater than 25 µM.
On the same count and under the same terms, the same measure for `O=C(CSc1nc2ccc(/N=C/c3ccc(F)cc3)cc2s1)N1CCOCC1` [Compound 26, 2-(6-{[1-(4-Fluoro-phenyl)-meth-(E)-ylidene]-amino}-benzothiazol-2-ylsulfanyl)-1-morpholin-4-yl-ethanone]: greater than 25 µM.
Regarding `O=C(CSc1nc2ccc(/N=C/c3ccc(Br)cc3)cc2s1)N1CCOCC1` [Compound 17, 2-(6-{[1-(4-Bromo-phenyl)-meth-(E)-ylidene]-amino}-benzothiazol-2-ylsulfanyl)-1-morpholin-4-yl-ethanone], the EC50 is greater than 25 µM.
The same measure, in the same setting: the same measure for `O=C(CSc1nc2ccc(/N=C/c3c4ccccc4cc4ccccc34)cc2s1)N1CCOCC1` [Compound 19, 2-(6-{[1-Anthracen-9-yl-meth-(E)-ylidene]-amino}-benzothiazol-2-ylsulfanyl)-1-morpholin-4-yl-ethanone]: greater than 25 µM; for `Nc1ccc2nc(SCC(=O)N3CCN(Cc4ccccc4)CC3)sc2c1` [Compound 10, 2-(6-Amino-benzothiazol-2-ylsulfanyl)-1-(4-benzyl-piperazin-1-yl)-ethanone]: 1 to 10 µM.
The same measure, in the same setting: to `O=C(CSc1nc2ccccc2[nH]1)N1CCCCCC1` [Compound 43, 1-Azepan-1-yl-2-(1H-benzoimidazol-2-ylsulfanyl)-ethanone] belongs greater than 25 µM.
The same measure, in the same setting: the same measure for `Cn1c(SCC(=O)N2CCc3ccccc3C2)nc2ccccc21` [Compound 81, 1-(3,4-Dihydro-1H-isoquinolin-2-yl)-2-(1-methyl-1H-benzoimidazol-2-ylsulfanyl)-ethanone]: greater than 25 µM.
With `Cc1cccc(C)c1NC(=O)Cn1c(SCC(N)=O)nc2ccccc21` [Compound 79, 2-{1-[(2,6-Dimethyl-phenylcarbamoyl)-methyl]-1H-benzoimidazol-2-ylsulfanyl}-acetamide], the EC50 is greater than 25 µM.
Same read-out and setting: to `O=C(CSc1nc2ccc(/N=C/c3ccc(I)cc3)cc2s1)N1CCOCC1` [Compound 25, 2-(6-{[1-(4-Iodo-phenyl)-meth-(E)-ylidene]-amino}-benzothiazol-2-ylsulfanyl)-1-morpholin-4-yl-ethanone] belongs greater than 25 µM.
Regarding `CCOc1ccc2nc(SCC(=O)N3CCN(c4nc5ccccc5s4)CC3)sc2c1` [Compound 39, 1-(4-Benzothiazol-2-yl-piperazin-1-yl)-2-(6-ethoxy-benzothiazol-2-ylsulfanyl)-ethanone], the EC50 was greater than 25 µM.
Still for that read-out and setting: to `O=C(CSc1nc2ccccc2[nH]1)N1CCCC1` [Compound 45, 2-(1H-Benzoimidazol-2-ylsulfanyl)-1-pyrrolidin-1-yl-ethanone] belongs greater than 25 µM; to `Cc1ccc(-c2nnc(N3CCN(C(=O)CSc4nc5ccccc5o4)CC3)c3ccccc23)cc1` [Compound 78, 2-(Benzooxazol-2-ylsulfanyl)-1-[4-(4-p-tolyl-phthalazin-1-yl)-piperazin-1-yl]-ethanone], greater than 25 µM.
Same read-out and setting: to `O=C(CSc1nc2ccc([N+](=O)[O-])cc2s1)N1CCN(c2ccccc2)CC1` [Compound 52, 2-(6-Nitro-benzothiazol-2-ylsulfanyl)-1-(4-phenyl-piperazin-1-yl)-ethanone] belongs greater than 25 µM.
As to `COc1ccc(C(=O)Nc2ccc3nc(SCC(=O)N4CCOCC4)sc3c2)cc1OC` [Compound 64, 3,4-Dimethoxy-N-[2-(2-morpholin-4-yl-2-oxo-ethylsulfanyl)-benzothiazol-6-yl]-benzamide], the EC50 was greater than 25 µM.
The same measure, in the same setting: the same measure for `CCCCOc1ccc(C(=O)Nc2ccc3nc(SCC(=O)N4CCOCC4)sc3c2)cc1` [Compound 22, 4-Butoxy-N-[2-(2-morpholin-4-yl-2-oxo-ethylsulfanyl)-benzothiazol-6-yl]-benzamide]: greater than 25 µM.
The same measure, in the same setting: to `O=C(CSc1nc2ccc(/N=C/c3ccc(Sc4nnnn4-c4ccccc4)o3)cc2s1)N1CCOCC1` [Compound 23, 1-Morpholin-4-yl-2-(6-{[1-[5-(1-phenyl-1H-tetrazol-5-ylsulfanyl)-furan-2-yl]-meth-(E)-ylidene]-amino}-benzothiazol-2-ylsulfanyl)-ethanone] belongs greater than 25 µM.
On the same count and under the same terms, to `O=C(CSc1nc2ccc([N+](=O)[O-])cc2s1)N1CCN(c2cccc(Cl)c2)CC1` [Compound 73, 1-[4-(3-Chloro-phenyl)-piperazin-1-yl]-2-(6-nitro-benzothiazol-2-ylsulfanyl)-ethanone] belongs greater than 25 µM.

For the origin of these results see patent US9029376B2, “Small molecule inhibitors for the treatment or prevention of dengue virus infection” (Siga Technologies, Inc., priority 2008, dated 2015).
